Source: paper PMC7704495 (Pharmacological Reports, 2020)

How the values were obtained:
[1] = biological target: T1, CYP3A4 (Homo sapiens, UniProt P08684); experiment: CYP3A4 inhibition, testosterone 6β-hydroxylation in cDNA-expressed CYP3A4 (supersomes)
Procedure: (§1) The following probe reactions were applied, according to the methods previously described: caffeine 3-N-demethylation for CYP1A2 (caffeine 200, 400 and 800 µM), diclofenac 4′-hydroxylation for CYP2C9 (diclofenac 5, 10, 25 µM), perazine N-demethylation for CYP2C19 (perazine 50, 100, 200 µM), bufuralol 1′-hydroxylation for CYP2D6 (bufuralol 10, 25, 50 µM), and testosterone 6β-hydroxylation for CYP3A4 (50, 100 and 200 µM). Incubation systems for CYP2C9, 2C19 and 3A4 contained: 50 mM TRIS/KCL buffer (pH = 7.4), NADPH generating system (1 mM NADP, 5 mM glucose 6-phosphate, 1.7 U/ml glucose 6-phosphate dehydrogenase, 1 mM EDTA and 3 mM MgCl2). Incubation mixture for CYP1A2 included: 0.15 M phosphate buffer (pH = 7.4) and 1 mM NADPH, and for CYP2D6: 0.1 M TRIS/KCL buffer (pH = 7.4), NADPH generating system (1.3 mM NADP, 3.3 mM glucose 6-phosphate, 1 U/ml glucose 6-phosphate dehydrogenase and 3.3 mM MgCl2). The appropriate concentrations of human liver microsomes (0.5 mg/ml for each reaction) or supersomes (50 pmol CYP/ml), various concentrations of a probe substrate in the absence or presence of neuroleptic (concentrations: 0.1, 0.5, 1, 5, 10 µM) were added, The final volume of the reaction mixture was 0.5 ml. The incubation time for supersomes was 30 min (for each reaction) and for liver microsomes: 30 min (diclofenac 4′-hydroxylation and bufuralol 1′-hydroxylation), 20 min (perazine N-demethylation and testosterone 6β-hydroxylation) or 50 min (caffeine 3-N-demethylation). After the reactions had been stopped, the concentrations of specific substrates and their metabolites formed in liver microsomes or supersomes were assessed by the HPLC method with UV detection (or fluorimetric detection for CYP2D6), as described previously.
(§2) Kinetic parameters (Km, Vmax, Ki) describing the course of CYP-specific reactions in liver microsomes or supersomes were obtained using the Michaelis–Menten approach and a non-linear regression analysis (Program Sigma Plot 12.3 Enzyme Kinetics).

[2] = lipophilicity; cited from earlier work
[3] = biological target: T2, CYP2C19 (Homo sapiens, UniProt P33261); experiment: CYP2C19 inhibition, perazine N-demethylation in pooled human liver microsomes; assay type: in vitro ADME; set-up: a Human liver microsomes; tissue Corning (Woburn, USA); host or cells: pooled human liver microsomes; conditions: for type of inhibition: Lineweaver–Burk; for Ki: perazine N-demethylation
Procedure: as §1, §2

[4] = biological target: T3, CYP2C9 (Homo sapiens, UniProt P11712); experiment: CYP2C9 inhibition, diclofenac 4′-hydroxylation in cDNA-expressed CYP2C9 (supersomes); assay type: in vitro ADME; conditions: for type of inhibition: Lineweaver–Burk
T3 construct: purchased Corning (Woburn, USA); host or cells: baculovirus-infected insect cells
Procedure: as §1, §2

[5] = biological target: T4, CYP1A2 (Homo sapiens, UniProt P05177); experiment: CYP1A2 inhibition, caffeine 3-N-demethylation in pooled human liver microsomes; assay type: in vitro ADME; conditions: for type of inhibition: Lineweaver–Burk; for Ki: caffeine 3-N-demethylation
T4 construct: purchased Corning (Woburn, USA); host or cells: baculovirus-infected insect cells
T4 sequence (P05177 1-516): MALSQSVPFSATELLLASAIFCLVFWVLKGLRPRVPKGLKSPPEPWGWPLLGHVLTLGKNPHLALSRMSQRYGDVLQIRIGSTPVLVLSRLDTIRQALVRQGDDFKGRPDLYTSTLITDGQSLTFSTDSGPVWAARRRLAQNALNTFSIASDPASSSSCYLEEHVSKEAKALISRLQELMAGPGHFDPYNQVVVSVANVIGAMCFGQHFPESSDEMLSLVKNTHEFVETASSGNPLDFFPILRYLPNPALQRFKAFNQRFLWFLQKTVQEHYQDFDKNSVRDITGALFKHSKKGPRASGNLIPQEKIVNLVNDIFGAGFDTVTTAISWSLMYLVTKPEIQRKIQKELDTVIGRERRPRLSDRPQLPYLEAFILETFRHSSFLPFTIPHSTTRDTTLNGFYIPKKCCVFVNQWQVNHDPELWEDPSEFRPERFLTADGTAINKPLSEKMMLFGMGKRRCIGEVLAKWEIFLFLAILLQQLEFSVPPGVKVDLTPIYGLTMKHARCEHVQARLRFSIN
Procedure: as §1, §2

[6] = biological target: T4, CYP1A2; experiment: CYP1A2 inhibition, caffeine 3-N-demethylation in cDNA-expressed CYP1A2 (supersomes); assay type: in vitro ADME; conditions: for type of inhibition: Lineweaver–Burk; for Ki: caffeine 3-N-demethylation
Procedure: as §1, §2

[7] = biological target: T3, CYP2C9; experiment: CYP2C9 inhibition, diclofenac 4′-hydroxylation in pooled human liver microsomes; assay type: in vitro ADME; conditions: for type of inhibition: Lineweaver–Burk
Procedure: as §1, §2

[8] = biological target: T1, CYP3A4; experiment: CYP3A4 inhibition, testosterone 6β-hydroxylation in pooled human liver microsomes
Procedure: as §1, §2

[9] = biological target: T5, CYP2D6 (Homo sapiens, UniProt P10635); experiment: CYP2D6 inhibition, bufuralol 1′-hydroxylation in pooled human liver microsomes; assay type: in vitro ADME; set-up: a Human liver microsomes; tissue Corning (Woburn, USA); host or cells: pooled human liver microsomes; conditions: for type of inhibition: Lineweaver–Burk; for Ki: bufuralol 1′-hydroxylation
Procedure: as §1, §2

[10] = biological target: T2, CYP2C19; experiment: CYP2C19 inhibition, perazine N-demethylation in cDNA-expressed CYP2C19 (supersomes); assay type: in vitro ADME; conditions: for type of inhibition: Lineweaver–Burk; for Ki: perazine N-demethylation
Procedure: as §1, §2

[11] = biological target: T5, CYP2D6; experiment: CYP2D6 inhibition, bufuralol 1′-hydroxylation in cDNA-expressed CYP2D6 (supersomes); assay type: in vitro ADME; conditions: for type of inhibition: Lineweaver–Burk; for Ki: bufuralol 1′-hydroxylation
Procedure: as §1, §2

[12] = patients; cited from earlier work

T1 sequence (P08684 whole entry): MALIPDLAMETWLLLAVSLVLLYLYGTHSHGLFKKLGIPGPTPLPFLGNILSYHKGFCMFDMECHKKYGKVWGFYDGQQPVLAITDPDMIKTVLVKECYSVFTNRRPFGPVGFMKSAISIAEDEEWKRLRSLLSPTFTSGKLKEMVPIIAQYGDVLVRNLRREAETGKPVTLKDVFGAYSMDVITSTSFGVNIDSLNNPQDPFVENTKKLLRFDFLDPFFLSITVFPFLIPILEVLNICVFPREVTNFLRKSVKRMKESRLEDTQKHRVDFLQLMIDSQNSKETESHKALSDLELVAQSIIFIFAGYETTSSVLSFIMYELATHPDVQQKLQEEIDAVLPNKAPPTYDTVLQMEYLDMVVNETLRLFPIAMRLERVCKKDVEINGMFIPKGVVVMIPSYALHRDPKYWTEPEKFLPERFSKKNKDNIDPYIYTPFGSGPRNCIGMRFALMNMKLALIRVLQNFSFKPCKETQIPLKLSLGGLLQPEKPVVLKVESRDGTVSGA
T3 sequence (P11712 whole entry): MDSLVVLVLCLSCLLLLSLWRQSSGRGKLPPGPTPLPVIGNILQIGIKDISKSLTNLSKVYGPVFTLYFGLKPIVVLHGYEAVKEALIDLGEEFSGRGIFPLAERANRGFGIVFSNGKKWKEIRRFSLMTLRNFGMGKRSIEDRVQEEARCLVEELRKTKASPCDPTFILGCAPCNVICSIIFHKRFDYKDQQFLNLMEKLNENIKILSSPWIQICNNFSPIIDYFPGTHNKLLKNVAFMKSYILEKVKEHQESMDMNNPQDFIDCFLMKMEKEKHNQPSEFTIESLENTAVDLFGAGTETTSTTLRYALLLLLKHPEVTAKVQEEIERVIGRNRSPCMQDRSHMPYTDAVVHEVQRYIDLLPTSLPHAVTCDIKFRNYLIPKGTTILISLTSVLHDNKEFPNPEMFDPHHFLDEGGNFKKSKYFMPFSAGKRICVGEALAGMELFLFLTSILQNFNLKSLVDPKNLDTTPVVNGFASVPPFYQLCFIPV
T2 sequence (P33261 whole entry): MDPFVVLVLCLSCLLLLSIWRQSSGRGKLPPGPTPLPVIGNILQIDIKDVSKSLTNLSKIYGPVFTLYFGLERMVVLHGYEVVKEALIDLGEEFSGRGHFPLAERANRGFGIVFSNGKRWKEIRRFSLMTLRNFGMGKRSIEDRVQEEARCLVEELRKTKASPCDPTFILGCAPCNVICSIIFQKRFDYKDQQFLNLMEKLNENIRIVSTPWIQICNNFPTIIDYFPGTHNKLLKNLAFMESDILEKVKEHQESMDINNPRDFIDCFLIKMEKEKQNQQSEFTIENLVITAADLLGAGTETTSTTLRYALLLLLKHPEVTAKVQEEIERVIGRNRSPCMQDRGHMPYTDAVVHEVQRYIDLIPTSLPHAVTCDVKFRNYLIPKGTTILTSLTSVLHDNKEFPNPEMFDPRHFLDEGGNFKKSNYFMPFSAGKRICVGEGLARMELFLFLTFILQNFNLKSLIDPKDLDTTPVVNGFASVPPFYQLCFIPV
T5 sequence (P10635 whole entry): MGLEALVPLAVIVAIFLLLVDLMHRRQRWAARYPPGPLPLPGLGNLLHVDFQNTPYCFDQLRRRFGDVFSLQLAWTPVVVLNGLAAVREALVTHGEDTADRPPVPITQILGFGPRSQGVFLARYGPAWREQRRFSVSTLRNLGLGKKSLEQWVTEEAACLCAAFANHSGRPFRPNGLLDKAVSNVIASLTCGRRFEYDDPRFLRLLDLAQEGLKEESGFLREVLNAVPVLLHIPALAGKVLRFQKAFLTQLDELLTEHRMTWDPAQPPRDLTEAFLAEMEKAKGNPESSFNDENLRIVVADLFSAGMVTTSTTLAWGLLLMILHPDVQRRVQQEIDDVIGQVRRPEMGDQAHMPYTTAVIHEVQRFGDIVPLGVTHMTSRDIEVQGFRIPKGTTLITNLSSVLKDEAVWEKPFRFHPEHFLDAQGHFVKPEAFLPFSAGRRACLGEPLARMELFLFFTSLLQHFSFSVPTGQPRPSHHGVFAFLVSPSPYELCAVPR

Row | type of inhibition [1] | type of inhibition ([1]; human, 30 min, pH 7.4) | type of inhibition [3] | Ki [3] | type of inhibition [5] | Ki [5] | type of inhibition [6] | Ki [6] | type of inhibition [8] | type of inhibition ([8]; human, 20 min, pH 7.4) | type of inhibition [9] | Ki [9] | type of inhibition [10] | Ki [10] | type of inhibition [11] | Ki [11] | SMILES | log P [2] | therapeutic plasma concentration [12] | also measured
1 | noncompetitive | Noncompetitive | Mixed | 6.5 µM | Mixed | 45 µM | Mixed | 31 µM | noncompetitive | Noncompetitive | Competitive | 2.9 µM | Mixed | 32 µM | Competitive | 10 µM | COc1cc(C(C)=O)ccc1OCCCN1CCC(c2noc3cc(F)ccc23)CC1 [Iloperidone, iloperidone] | 4.43 | up to 0.2 μM | type of inhibition ([3]; listed as iloperidone): mixed; Ki at 30 min ([4]; human, pH 7.4, probe diclofenac (4′-hydroxylation), CYP2C9, supersomes, diclofenac 4′-hydroxylation): > 10 µM; effect on the activity of CYP2C9 ([4]; supersomes, neuroleptic 0.1-10 µM): did not affect; type of inhibition ([5]; listed as iloperidone): mixed; type of inhibition ([6]; listed as iloperidone): mixed; Ki at 30 min ([7]; human, pooled human liver microsomes, pH 7.4, probe diclofenac (4′-hydroxylation), CYP2C9, liver microsomes, diclofenac 4′-hydroxylation): > 10 µM; effect on the activity of CYP2C9 ([7]; liver microsomes, neuroleptic 0.1-10 µM): did not affect; type of inhibition ([9]; listed as iloperidone): competitive; type of inhibition ([10]; listed as iloperidone): mixed; type of inhibition ([11]; listed as iloperidone): competitive
2 | competitive | Competitive | Mixed | 18 µM | Mixed | 12.6 µM | Mixed | 15.5 µM | competitive | Competitive | Competitive | 37.5 µM | Mixed | 18.4 µM | Competitive | 85 µM | O=C1[C@@H]2[C@H]3CC[C@H](C3)[C@@H]2C(=O)N1C[C@@H]1CCCC[C@H]1CN1CCN(c2nsc3ccccc23)CC1 [Lurasidone, lurasidone] | 5.6 | ≤ 1.2 µM | Ki [1]: 9.1 µM; type of inhibition ([3]; listed as lurasidone): mixed; type of inhibition ([4]; CYP2C9, supersomes): Mixed; type of inhibition ([4]; CYP2C9, supersomes, listed as lurasidone): mixed; Ki ([4]; CYP2C9, supersomes, diclofenac 4′-hydroxylation): 3.5 µM; type of inhibition ([5]; listed as lurasidone): mixed; type of inhibition ([6]; listed as lurasidone): mixed; type of inhibition ([7]; CYP2C9, liver microsomes): Mixed; type of inhibition ([7]; CYP2C9, liver microsomes, listed as lurasidone): mixed; Ki ([7]; CYP2C9, liver microsomes, diclofenac 4′-hydroxylation): 18 µM; Ki [8]: 29.4 µM; type of inhibition ([9]; listed as lurasidone): competitive; type of inhibition ([10]; listed as lurasidone): mixed; type of inhibition ([11]; listed as lurasidone): competitive
